{"source": "patent US20230023092A1", "about": "“TREATMENT OF DEPRESSION AND OTHER VARIOUS DISORDERS WITH PSILOCYBIN” (COMPASS […], priority 2019, published 2023)", "assay_type_in_all_cases": "in vivo, human", "key": {"[1]": {"system": "healthy subjects", "assay": "CANTAB Paired Associates Learning (PALTEA)", "settings": "Day 28", "text": "In some embodiments, the Paired Associates Learning (PAL) test is utilized to evaluate safety and/or efficacy of psilocybin. The PAL task is a measure of visuo-spatial memory in which study subjects are required to remember locations at which visual stimuli are located. […] One or more of them will contain a pattern. […] If the subject makes an error, the boxes are opened in sequence again to remind the subject of the locations of the patterns. Increased difficulty levels can be used to test high-functioning, healthy individuals. The primary metric for this test is the number of errors made. This test takes approximately 8 min to complete. […]\nThe following list of outcome measures are non-exhaustive. • a. The short-term change from Baseline (Day −1 [Visit 2]) to Day 7 (Visit 5) in cognitive measures of attention, spatial and working memory and executive function was measured by a composite score of the CANTAB Panel (Spatial Working Memory [SWM], Rapid Visual Information Processing [RVP], Paired Associates Learning [PAL]). • b. The short-term change from Baseline (Day −1 [Visit 2]) to Day 7 (Visit 5) in Social Cognition Panel scales (Pictorial Empathy Test [PET], Reading the Mind in the Eyes Test [RMET], Toronto Empathy Questionnaire [TEQ], Social Value Orientation [SVO], Scale of Social Responsibility [SSR]). • c. […]"}, "[2]": {"system": "healthy subjects", "assay": "Pictorial Empathy Test (PET)", "description": "In some embodiments, the Pictorial Empathy Test (PET) is utilized to evaluate the effect of psilocybin on affective empathy.\n(§1) The Pictorial Empathy Test (PET), Reading the Mind in the Eyes Test (RMET), Scale of Social Responsibility (SSR), Social Value Orientation (SVO), and Toronto Empathy Questionnaire (TEQ) were performed. Table 20 summarizes the results of the mixed model for repeated measures (MMRM) analysis for each of the aforementioned social cognition panel scales measured on Day 7 and Day 84 after study drug administration."}, "[3]": {"system": "healthy subjects", "assay": "Reading the Mind in the Eyes Test (RMET)", "text": "In some embodiments, Reading the Mind in the Eyes Test (RMET) is utilized to evaluate the safety and/or efficacy of psilocybin. The RMET has 36 items, in which subjects are presented with a photograph of the eyes region of the face and must choose 1 of 4 adjectives or phrases to describe the mental state of the person pictured. A definition handout is provided at the beginning of the task and a practice item precedes the first trial.\nas §1"}, "[4]": {"settings": "Day 7, psilocybin 10 mg - placebo"}, "[5]": {"settings": "Day 7, psilocybin 25 mg - 10 mg"}, "[6]": {"settings": "Day 7, psilocybin 25 mg - placebo"}, "[7]": {"settings": "Day 84, psilocybin 10 mg - placebo"}, "[8]": {"settings": "Day 84, psilocybin 25 mg - 10 mg"}, "[9]": {"settings": "Day 84, psilocybin 25 mg - placebo"}}}
{"smiles": "CN(C)CCc1c[nH]c2cccc(OP(=O)(O)O)c12", "note": "[Psilocybin, psilocybin]", "values": [{"measurement": "PALTEA improvement compared to placebo (LS mean difference from placebo)", "setting": "[1]; 10 mg", "value": "~2", "unit": "point"}, {"measurement": "PALTEA improvement compared to placebo (LS mean difference from placebo)", "setting": "[1]; 25 mg", "value": "~2", "unit": "point"}, {"measurement": "PET change from baseline (LS mean)", "setting": "[2]; Day 7, psilocybin 10 mg", "value": "−0.3"}, {"measurement": "PET change from baseline, LS mean difference", "setting": "[2]; [4]", "value": "−0.1"}, {"measurement": "PET change from baseline (LS mean)", "setting": "[2]; Day 7, psilocybin 25 mg", "value": 0.0}, {"measurement": "PET change from baseline, LS mean difference", "setting": "[2]; [5]", "value": 0.3}, {"measurement": "PET change from baseline, LS mean difference", "setting": "[2]; [6]", "value": 0.2}, {"measurement": "PET change from baseline (LS mean)", "setting": "[2]; Day 84, psilocybin 10 mg", "value": "−0.3"}, {"measurement": "PET change from baseline, LS mean difference", "setting": "[2]; [7]", "value": "−0.1"}, {"measurement": "PET change from baseline (LS mean)", "setting": "[2]; Day 84, psilocybin 25 mg", "value": "−0.1"}, {"measurement": "PET change from baseline, LS mean difference", "setting": "[2]; [8]", "value": 0.3}, {"measurement": "PET change from baseline, LS mean difference", "setting": "[2]; [9]", "value": 0.1}, {"measurement": "RMET change from baseline (LS mean)", "setting": "[3]; Day 7, psilocybin 10 mg", "value": 0.4}, {"measurement": "RMET change from baseline, LS mean difference", "setting": "[3]; [4]", "value": 0.1}, {"measurement": "RMET change from baseline (LS mean)", "setting": "[3]; Day 7, psilocybin 25 mg", "value": 0.4}, {"measurement": "RMET change from baseline, LS mean difference", "setting": "[3]; [5]", "value": 0.0}, {"measurement": "RMET change from baseline, LS mean difference", "setting": "[3]; [6]", "value": 0.2}, {"measurement": "RMET change from baseline (LS mean)", "setting": "[3]; Day 84, psilocybin 10 mg", "value": 0.1}, {"measurement": "RMET change from baseline, LS mean difference", "setting": "[3]; [7]", "value": 0.2}, {"measurement": "RMET change from baseline (LS mean)", "setting": "[3]; Day 84, psilocybin 25 mg", "value": 0.4}, {"measurement": "RMET change from baseline, LS mean difference", "setting": "[3]; [8]", "value": 0.3}, {"measurement": "RMET change from baseline, LS mean difference", "setting": "[3]; [9]", "value": 0.5}]}
